Assay results from patent publication US9284350B2, “IAP BIR domain binding compounds” (Pharmascience Inc., priority 2010, dated 2016).

Experiments:
XIAP = molecular target: T1, XIAP (Homo sapiens, UniProt P98170); assay: Fluorescence polarization-based competition assay, XIAP; format: binding; settings: FP assay, ki derived from IC50
T1 construct: fused on or other part: GST tag at the N-terminus (pGEX4T vectors)
Method: (§1) Binding of compounds of Formula 1 to target BIR domains was measured using a fluorescence-polarization (FP) assay. Fluorescence-polarization was evaluated using a GENios microplate reader (TECAN) Pro instrument with the excitation filter set at 485 nm and the emission filter set at 535 nm. The final amount of protein used in the assay corresponds to the amount of protein necessary to obtain 80% of the maximum FP value in a P1 or P2 fluorescent (FITC) probe saturation experiment. The compounds potency (IC50) and selectivity, was assessed in the presence of the amount of target protein established, fluorescent probe, and a 10 point serial dilution in assay buffer (50 mM Hepes, pH 7.5, 250 mcg/mL γ-globulin, 2 mM DTT, 1% DMSO) of the selected compounds.
(§2) Assays were carried out in duplicate using untreated black 96-well plates (Corning #3915) and a total volume of 100 microliters, containing 25 microliters of fluorescent probe at a final concentration of 2 nM in assay buffer, 25 microliters of diluted compound, 25 microliters of BIR protein into assay buffer and 25 microliters of assay buffer. Buffer only (blank) or probe only in buffer (G-factor) were used as controls for calibration. The plate was incubated at room temperature in the dark for one hour and FP values in millipolarization units (mP) were recorded using Genios Pro FP reader.
(§3) The measured FP values (mP) were then plotted against compound concentration, and IC50 values were calculated based on a sigmoidal dose-response (variable-slope) curve fit using GraphPad Prism version 4.02 for Windows, GraphPad Software, San Diego Calif. USA and/or CambridgeSoft BioAssay Enterprise Version 10.1. The IC50 value is the concentration of test compound at which 50% of the tracer was displaced. ki values were derived from the calculated IC50 values as described above and according to the equation described in Nikolovska-Coleska, Z. (2004) Anal Biochem 332, 261-273. The results are presented in Table 2, wherein A=less than 25 nM; B=less than 250 nM; C=less than 1000 nM; and D=greater than 1000 nM.

c-IAP1 = molecular target: T2, c-IAP1 (Homo sapiens, UniProt Q13490); assay: Fluorescence polarization-based competition assay, c-IAP1; format: binding; settings: FP assay, ki derived from IC50
T2 construct: GST (N); made in house; host or cells: E. coli DH5α
Method: as §1, §2, §3

cIAP2 = molecular target: T3, cIAP2 (Homo sapiens, UniProt Q13489); assay: Fluorescence polarization-based competition assay, cIAP2; format: binding; settings: FP assay, ki derived from IC50
T3 construct: GST (N); made in house; host or cells: E. coli DH5α
Method: as §1, §2, §3

[1] = system: Colorectal carcinoma HCT116 cells; assay: Cell death assay (MTT) in combination with HGS ETR1; format: cell-based; settings: with HGS ETR1 30 ng/ml, 72 hours, read-out: HCT116+ mapatubimap EC50
Method: Colorectal carcinoma HCT116 cells were cultured as monolayers in 96 well plates at a density of 2000 cells per well in McCoy's 5a medium (HyClone) supplemented with 2.2 g/L sodium bicarbonate, 10% FBS (HyClone) and 1% penicillin/streptomycin (HyClone). 24 hours later, triplicate wells were treated with HGS ETR1 (30 ng/ml) in combination with compound. Cells were incubated in the presence of compound and HGS agonistic Trail receptor antibody, ETR1 (Mapatumamab, 30 ng/ml) for 72 hours. Metabolic viability of remaining cells was assessed by MTT (thiazolyl blue tetrazolium bromide, Sigma) assay.
EC50 values (50% cell survival in the presence of compound as compared to untreated controls) were calculated from survival curves using BioAssay software (CambridgeSoft) and GraphPad Prism (Graph Pad Software Inc.). The results are provided in Table 3, below, wherein A=less than 50 nM; B=less than 250 nM; C=less than 1000 nM; and D=greater than 1000 nM.

T2 sequence (Q13490 251-363): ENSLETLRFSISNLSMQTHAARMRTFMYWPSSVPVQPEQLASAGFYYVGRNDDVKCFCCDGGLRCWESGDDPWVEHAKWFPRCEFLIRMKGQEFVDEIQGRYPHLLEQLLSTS
T3 sequence (Q13489 236-349): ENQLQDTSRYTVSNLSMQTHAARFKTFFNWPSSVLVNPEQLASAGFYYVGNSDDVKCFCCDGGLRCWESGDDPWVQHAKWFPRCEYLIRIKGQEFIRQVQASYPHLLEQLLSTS
T1 sequence (P98170 246-497 limits assumed): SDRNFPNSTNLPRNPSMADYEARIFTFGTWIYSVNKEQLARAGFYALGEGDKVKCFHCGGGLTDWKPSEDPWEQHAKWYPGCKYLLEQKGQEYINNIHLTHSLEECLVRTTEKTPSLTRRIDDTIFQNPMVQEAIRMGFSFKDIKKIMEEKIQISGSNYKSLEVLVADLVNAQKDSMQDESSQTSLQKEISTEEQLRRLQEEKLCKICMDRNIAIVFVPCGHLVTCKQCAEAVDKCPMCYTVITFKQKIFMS

| SMILES | Ki (XIAP) | Ki (c-IAP1) | Ki (cIAP2) | EC50 [1] |
| --- | --- | --- | --- | --- |
| CN[C@@H](C)C(=O)N[C@H](C(=O)N1C[C@@H](NC(=O)c2ccccc2)C[C@H]1CN(CCc1ccc(F)cc1)C(=O)c1cn2cccnc2n1)C(C)(C)C [Compound 49] | < 1 µM | < 0.025 µM | < 0.025 µM | < 0.25 µM |
| CN[C@@H](C)C(=O)N[C@H](C(=O)N1CCC[C@H]1CN(CCc1ccc(F)cc1)C(=O)c1cn(-c2ccccc2)nn1)C(C)(C)C [Compound 50] | < 0.25 µM | < 0.025 µM | < 0.025 µM | < 0.25 µM |
| CN[C@@H](C)C(=O)N[C@H](C(=O)N1CCC[C@H]1CN(CCc1ccc(F)cc1)C(=O)c1cc2ccccn2c1)C(C)(C)C [Compound 68] | < 0.25 µM | < 0.025 µM | < 0.025 µM | < 0.25 µM |
| CN[C@@H](C)C(=O)N[C@H](C(=O)N1C[C@@H](Oc2ccc(F)cc2)C[C@H]1CN(CCc1ccc(F)cc1)C(=O)c1cn2ccccc2n1)C(C)(C)C [Compound 84] | < 0.025 µM | < 0.025 µM | < 0.025 µM | < 0.05 µM |
| CN[C@@H](C)C(=O)N[C@H](C(=O)N1C[C@@H](Oc2ccccc2)C[C@H]1CN(CCc1ccc(F)cc1)C(=O)c1cn2cccnc2n1)C(C)(C)C [Compound 124] | < 0.25 µM | < 0.025 µM | < 0.025 µM | < 0.05 µM |
| CN[C@@H](C)C(=O)N[C@H](C(=O)N1C[C@@H](Oc2ccc(F)cc2)C[C@H]1CN(CCc1ccc(F)cc1)C(=O)c1cn2cccnc2n1)[C@@H](C)OC [Compound 100] | < 0.25 µM | < 0.025 µM | < 0.025 µM | < 0.25 µM |
| CN[C@@H](C)C(=O)N[C@H](C(=O)N1CCC[C@H]1CN(CCc1ccc(F)cc1)C(=O)c1cn2ccccc2n1)C(C)(C)C [Compound 17] | < 0.25 µM | < 0.025 µM | < 0.025 µM | < 0.05 µM |
| CN[C@@H](C)C(=O)N[C@H](C(=O)N1C[C@@H](Oc2ccc(F)cc2)C[C@H]1CN(CCc1ccc(F)cc1)C(=O)c1cn2c(n1)CCC2)C(C)(C)C [Compound 83] | < 0.025 µM | < 0.025 µM | < 0.025 µM | < 0.05 µM |
| CN[C@@H](C)C(=O)N[C@H](C(=O)N1CCC[C@H]1CN(CCc1ccc(F)cc1)C(=O)c1cn(-c2ccccc2)cn1)C(C)(C)C [Compound 61] | < 0.25 µM | < 0.025 µM | < 0.025 µM | < 0.25 µM |
| CN[C@@H](C)C(=O)N[C@H](C(=O)N1CCC[C@H]1CN(CCc1ccc(F)cc1)C(=O)c1cn(C)nn1)C1CCCCC1 [Compound 110] | < 0.25 µM | < 0.025 µM | < 0.025 µM | < 0.05 µM |
| CN[C@@H](C)C(=O)N[C@H](C(=O)N1C[C@@H](OCc2ccccc2)C[C@H]1CN(CCc1ccc(F)cc1)C(=O)c1cn2cccnc2n1)C(C)(C)C [Compound 47] | < 0.25 µM | < 0.025 µM | < 0.025 µM | < 0.25 µM |
| CN[C@@H](C)C(=O)N[C@H](C(=O)N1CCC[C@H]1CN(CCc1ccc(F)cc1)C(=O)c1cc(-c2ccccc2)[nH]n1)C(C)(C)C [Compound 88] | < 0.25 µM | < 0.025 µM | < 0.025 µM | < 0.25 µM |
| CN[C@@H](C)C(=O)N[C@H](C(=O)N1C[C@@H](Oc2ccc(F)cc2)C[C@H]1CN(CCc1ccc(F)cc1)C(=O)c1cn2cc(F)cnc2n1)[C@@H](C)OC [Compound 107] | < 0.25 µM | < 0.025 µM | < 0.025 µM | < 0.05 µM |
| CN[C@@H](C)C(=O)N[C@H](C(=O)N1CCC[C@H]1CN(CCc1ccc(F)cc1)C(=O)c1cn2c(n1)CCC2)C1CCCCC1 [Compound 113] | < 0.25 µM | < 0.025 µM | < 0.025 µM | < 0.05 µM |
| CN[C@@H](C)C(=O)N[C@H](C(=O)N1CCC[C@H]1CN(CCc1ccc(F)cc1)C(=O)c1ncc(-c2ccccc2)[nH]1)C(C)(C)C [Compound 109] | < 0.25 µM | < 0.025 µM | < 0.025 µM | < 0.05 µM |
| CN[C@@H](C)C(=O)N[C@H](C(=O)N1C[C@@H](NS(=O)(=O)c2ccccc2)C[C@H]1CN(CCc1ccc(F)cc1)C(=O)c1cn2cccnc2n1)C(C)(C)C [Compound 59] | < 0.25 µM | < 0.025 µM | < 0.025 µM | < 1 µM |
| CN[C@@H](C)C(=O)N[C@H](C(=O)N1CCC[C@H]1CN(CCc1ccc(F)cc1)C(=O)c1cn2ccccc2n1)C1CCCCC1 [Compound 18] | < 0.25 µM | < 0.025 µM | < 0.025 µM | < 0.05 µM |
| CN[C@@H](C)C(=O)N[C@H](C(=O)N1C[C@@H](NC(C)=O)C[C@H]1CN(CCc1ccc(F)cc1)C(=O)c1cn2cccnc2n1)C(C)(C)C [Compound 55] | < 0.25 µM | < 0.025 µM | < 0.025 µM | > 1 µM |
| CN[C@@H](C)C(=O)N[C@H](C(=O)N1C[C@@H](Oc2ccc(OC)cc2)C[C@H]1CN(CCc1ccc(F)cc1)C(=O)c1cn(C)cn1)C(C)(C)C [Compound 96] | < 0.25 µM | < 0.025 µM | < 0.025 µM | < 0.05 µM |
| CN[C@@H](C)C(=O)N[C@H](C(=O)N1C[C@@H](Oc2ccc(OC(F)(F)F)cc2)C[C@H]1CN(CCc1ccc(F)cc1)C(=O)c1cn(C)cn1)C(C)(C)C [Compound 97] | < 0.25 µM | < 0.025 µM | < 0.025 µM | < 0.05 µM |
| CN[C@@H](C)C(=O)N[C@H](C(=O)N1C[C@@H](NC(=O)c2ccccc2)C[C@H]1CN(CCc1ccc(F)cc1)C(=O)c1cn(-c2ccc(F)cc2)cn1)C(C)(C)C [Compound 87] | < 0.25 µM | < 0.025 µM | < 0.025 µM | < 0.25 µM |
| CN[C@@H](C)C(=O)N[C@H](C(=O)N1CCC[C@H]1CN(CCc1cccc(F)c1)C(=O)c1cn2cccnc2n1)C(C)(C)C [Compound 12] | < 1 µM | < 0.025 µM | < 0.25 µM | < 0.25 µM |
| CN[C@@H](C)C(=O)N[C@H](C(=O)N1C[C@@H](NC(=O)c2ccccc2)C[C@H]1CN(CCc1ccc(F)cc1)C(=O)c1cn(C)cn1)C(C)(C)C [Compound 86] | < 0.25 µM | < 0.025 µM | < 0.025 µM | < 0.05 µM |
| CN[C@@H](C)C(=O)N[C@H](C(=O)N1CCC[C@H]1CN(CCc1ccc(F)cc1)C(=O)c1nccn1C)[C@@H](C)OC [Compound 85] | < 1 µM | < 0.025 µM | < 0.025 µM | < 0.05 µM |
| CN[C@@H](C)C(=O)N[C@H](C(=O)N1CCC[C@H]1CN(CCc1ccc(F)cc1)C(=O)c1cn(C2CCCC2)cn1)C(C)(C)C [Compound 91] | < 0.25 µM | < 0.025 µM | < 0.025 µM | < 0.05 µM |
| CCO[C@H](C)[C@H](NC(=O)[C@H](C)NC)C(=O)N1CCC[C@H]1CN(CCc1ccc(F)cc1)C(=O)c1cn2cc(F)cnc2n1 [Compound 80] | < 0.25 µM | < 0.025 µM | < 0.025 µM | < 0.05 µM |
| CN[C@@H](C)C(=O)N[C@H](C(=O)N1CCC[C@H]1CN(CCc1ccc(F)cc1)C(=O)c1cn2cccnc2n1)C1CCCCC1 [Compound 20] | < 0.25 µM | < 0.025 µM | < 0.025 µM | < 0.05 µM |
| CN[C@@H](C)C(=O)N[C@H](C(=O)N1CCC[C@H]1CN(CCc1ccccc1)C(=O)c1cn2cccnc2n1)C(C)(C)C [Compound 6] | < 0.25 µM | < 0.025 µM | < 0.025 µM | < 0.25 µM |
| CCO[C@H](C)[C@H](NC(=O)[C@H](C)NC)C(=O)N1CCC[C@H]1CN(CCc1ccc(F)cc1)C(=O)c1cn(C)cn1 [Compound 76] | < 0.25 µM | < 0.025 µM | < 0.025 µM | < 0.05 µM |
| CN[C@@H](C)C(=O)N[C@H](C(=O)N1CCC[C@H]1CN(CCc1ccc(F)cc1)C(=O)c1cc(C)on1)C(C)(C)C [Compound 98] | < 0.25 µM | < 0.025 µM | < 0.025 µM | < 0.25 µM |
